The source of these data is patent US20170362388A1, “Disulfide Polymers and Methods of Use” (The Brigham and Women's Hospital, Inc., priority 2014, published 2017).

Values after ≈ are worked out from the molar mass of the structure shown.

The subject of data set [1] is A549 Human Lung Carcinoma Xenograft. In words: Antitumor efficacy of docetaxel-loaded NPs. It counts as in vivo, mice. Conditions: 5 mg/kg docetaxel equivalent, iv tail vein, two injections. On the procedure:
A549 cell suspension (100 μL, equivalent to 5×10^6 cells) was first mixed with 100 μL Matrigel (BD scientific Co.), then subcutaneously injected into the right flank of 5-week-old female athymic nude mice (Charles River). The treatment was initiated on the 9th day, when solid tumor reached ˜100 mm^3. Tumor-bearing mice were divided into 4 groups and injected […] on the 9th and 23rd days after tumor inoculation with: (i) 1× PBS (ii) docetaxel 5 mg/kg (MTD), (iii) Cys-OMe-8/Cys-8E NPs at a docetaxel equivalent dose of 5 mg/kg (MTD), (iv) Cys-OMe-8/Cys-8E NPs at a docetaxel equivalent dose of 10 mg/kg. Control or drugs were administered by intravenous injection in the lateral tail vein (10 μL per g of body weight). Tumor dimension and body weight were recorded every other day. Tumor volume was calculated as follows: Volume [mm^3]=[…]. Mice were regularly monitored (every other day) for physical performance and were euthanized upon exceeding 15% weight loss, over 1500 mm^3 volume or if tumor ulceration was observed. Prior to the experiment, the maximum tolerated dose (MTD) of free docetaxel was established in normal Balb/c mice at 5 mg/kg. Tumor volumes at Day 30 were compared using the ANOVA analysis.
FIG. 30 is a plot of the antitumor effects of docetaxel-loaded Cys-OMe-8/Cys-8E nanoparticles in A549 tumor bearing mice. […]

The nature of another data set: Maximum tolerated dose. As to conditions: mouse, in vivo; normal Balb/c mice.
The test system of another data set is Hela and DU145 cells. The experiment in a line: In vitro anticancer performance of docetaxel-loaded NPs, alamar blue. The class given is cell-based. The procedure: Hela, MCF-7, A549, and DU145 cells were used to evaluate in vitro anticancer performance of docetaxel-loaded NPs (Cys-OMe-8/Cys-8E NPs with 10 wt % docetaxel loaded with docetaxel concentration ranging from 1 ng/ml to 500 ng/mL). Hela, MCF-7, A549, and DU145 cells were used. Cells (5,000 cells/well) were seeded in 96-well plates the day before use, and cultured according to recommendations from ATCC. Cells were treated with different concentrations of free docetaxel or docetaxel loaded NP for 4 h or 48 h (N=5). For the 4 h experiment, treated cells were washed twice with PBS buffer and the plate was incubated for another 44 h after replacement of fresh medium. Cell viability at 48 h was determined by alamar blue assay. As a control, the polymer cytotoxicity on Hela cells was ascertained using empty NPs.
In FIGS. 24B and 24D: DU145 cells were treated with docetaxel-loaded NPs for 4 h and 48 h, respectively.
The Alamar blue assay was used to evaluate the NP cytotoxicity. Briefly, 10% 0.1 mg/mL alamar blue was first added into each well and the plate was incubated for another 2 h. Then the fluorescence intensity was measured by a microplate reader (excitation/emission=530 nm/590 nm).
(Resazurin is reduced to fluorescent resorufin, in cell work by metabolically active cells.)

The term MTD denotes the largest dose that counted as tolerated. Read a high MTD as a wide tolerated range. One may read the IC50 as the concentration at which inhibition is half-maximal. A higher IC50 goes with a need for much substance. On to `CC(=O)O[C@@]12CO[C@@H]1C[C@H](O)[C@@]1(C)C(=O)[C@H](O)C3=C(C)[C@@H](OC(=O)[C@H](O)[C@@H](NC(=O)OC(C)(C)C)c4ccccc4)C[C@@](O)([C@@H](OC(=O)c4ccccc4)[C@H]21)C3(C)C` [docetaxel], for which the Tumor inhibition entry in data set [1] is “only limited tumor inhibition”. Besides, in the data set “Maximum tolerated dose”, the MTD turned out to be 5 mg/kg. In addition, the IC50 is roughly 0.1 µg/mL (≈ 0.124 µM) in the data set with Hela and DU145 cells (4 h treatment, viability at 48 h); roughly 0.005 µg/mL (≈ 0.00619 µM) with Hela and DU145 cells (48 h treatment).
